The text below walks through data of publication PMC5228037, “Discovery and Mechanistic Characterization of Selective Inhibitors of H2S-producing Enzyme: 3-Mercaptopyruvate Sulfurtransferase (3MST) Targeting Active-site Cysteine Persulfide” (Scientific Reports, 2017).

SMILES strings stand for the structures.

Assay [1] concerns the target T1, GST-fused m3MST (GST-3MST) (Mus musculus, UniProt Q99J99).
T1 construct: made in house; host or cells: E. coli BL21
T1 sequence (Q99J99 1-297): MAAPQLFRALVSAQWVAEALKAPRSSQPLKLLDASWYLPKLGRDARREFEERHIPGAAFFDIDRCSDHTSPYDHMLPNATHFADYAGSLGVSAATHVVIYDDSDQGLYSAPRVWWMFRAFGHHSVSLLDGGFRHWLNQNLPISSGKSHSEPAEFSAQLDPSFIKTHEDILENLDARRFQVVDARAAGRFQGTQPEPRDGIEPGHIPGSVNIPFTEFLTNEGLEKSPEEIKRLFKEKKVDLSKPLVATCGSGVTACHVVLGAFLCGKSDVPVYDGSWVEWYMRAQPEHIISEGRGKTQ
In words: 3MST inhibitor screening with H2S fluorescent probe HSip-1 (confirmation test, titration test). The conditions noted are these: HSip-1 fluorescence, room temperature 3 hr; for inhibition at 10 µM: 10 μM compound, 50 μM 3MP, 40 μM DTT, mean±S.D. n = 4; for IC50: 0.25, 1, 3, 10, 30 μM compound, 3MP and DTT, read-out: IC50 of 3MST inhibition (titration test). Type of assay: biochemical.

The target of a further assay is T2, recombinant CBS (Rattus norvegicus, UniProt P32232).
T2 construct: GST (N, cleaved yes); made in house; host or cells: E. coli DH5α
T2 sequence (P32232 1-561): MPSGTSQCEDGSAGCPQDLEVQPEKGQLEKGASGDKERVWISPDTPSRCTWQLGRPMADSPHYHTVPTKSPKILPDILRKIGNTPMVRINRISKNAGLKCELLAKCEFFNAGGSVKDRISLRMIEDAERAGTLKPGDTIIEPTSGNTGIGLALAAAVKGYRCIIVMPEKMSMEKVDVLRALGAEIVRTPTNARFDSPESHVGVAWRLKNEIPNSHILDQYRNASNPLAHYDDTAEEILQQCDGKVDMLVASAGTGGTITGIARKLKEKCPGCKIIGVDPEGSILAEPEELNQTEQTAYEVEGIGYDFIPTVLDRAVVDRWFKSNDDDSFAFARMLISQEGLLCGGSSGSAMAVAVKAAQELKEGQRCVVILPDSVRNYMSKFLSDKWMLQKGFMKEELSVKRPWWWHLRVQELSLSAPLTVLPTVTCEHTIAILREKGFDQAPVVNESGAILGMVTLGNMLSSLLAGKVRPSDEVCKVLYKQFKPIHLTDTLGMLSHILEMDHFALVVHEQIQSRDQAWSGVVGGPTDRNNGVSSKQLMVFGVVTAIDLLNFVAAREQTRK
In words: Inhibitory activity towards purified CBS by gas chromatography. Type of assay: biochemical. The conditions noted are these: 100 μM compound, 10 mM L-cysteine and DL-homocysteine. How it is done:
Figure 2 Selectivity assessment of hit compounds for 3MST over other H2S/polysulfides-producing enzymes and rhodanese. (a) 3MST-Inhibitory activity of hit compounds at 10 and 100 μM in cell lysate of 3MST-expressing HEK293 cells. 100 μM 3MP and 100 μM DTT were added to the solution containing 0.1% DMSO as a cosolvent, and the mixture was incubated at 37 °C for 15 min. H2S production was measured by gas chromatography. All data are presented as the mean ± S.D. (100 μM: n = 3 or 4; 10 μM: n = 3). (b) Selectivity assessment of hit compounds at 100 μM towards CBS and CSE. Only DMSO was added to the control sample instead of DMSO solution containing hit compounds. H2S production was monitored by gas chromatography. All data are presented as the mean (n = 3). (c) Detection method for rhodanese activity (Sörbo method). (d) Selectivity assessment of hit compounds towards rhodanese. The results are mean ± S.D. (n = 4, three times). These values were determined based upon the absorbance of [Fe(SCN)3] at 460 nm (Sӧrbo method). Bovine rhodanese 1.3–1.7 units/mL, substrate: 52 mM Na2S2O3, 50 mM KCN, 0.004% (w/v) BSA, 100 μM compound and DMSO 1% (v/v) in 88 mM potassium phosphate buffer (pH 8.6) at room temperature for 5 min incubation. (e) Fluorescence confocal microscopic images of live COS7 cells transfected with 3MST or an empty vector[9] as a control. Cells were incubated with 50 μM SSP4, a fluorescent probe for sulfane sulfur, and 10 μM, 1 μM, 0.5 μM, 0.1 or 0 μM compound 3 in DMEM containing 0.6% DMSO for 30 min, then washed with HBSS and placed in fresh DMEM with 0‒10 μM compound 3 (Pre). 500 μM 3MP was added to the cells and the cells were incubated for 10 min (10 min). (f) Graphic representation of (e). F/F0 was calculated by dividing the fluorescence intensity of cells after addition of 500 μM 3MP (10 min) by that of cells before addition of 500 μM 3MP (Pre), then the mean F/F0 was determined from 5 cells. All data represent the mean ± standard error of the mean (SEM) of three experiments.
GST-tagged rat CSE-HA or rat CBS-HA was expressed in E. coli DH5α as follows. E. coli DH5α transformed with the pGEX-rCSE-HA or pGEX-rCBS-HA plasmid was cultured overnight in LB medium containing 100 μg/mL ampicillin (and 0.3 mM 5-aminolevulinic acid, for CBS) at 37 °C, and the 120 mL culture was inoculated into 2400 mL of LB medium. Further growth of the culture was performed at 37 °C with vigorous shaking until OD600 reached 0.8. IPTG was added to the E. coli DH5α culture at a final concentration of 0.1 mM and incubation was continued at 18 °C. […]

`NC(=O)c1ccsc1NC(=O)CSc1nc2ccccc2c(=O)[nH]1` [compound 1]: in assay [1], the inhibition at 10 µM came out at 102.8 ± 0.2% and the IC50 turned out to be 1.7 µM. Also, at recombinant CBS (read-out: Inhibition of recombinant CBS enzymatic activity (H2S production)), the inhibition at 100 µM was about 25%.
As to `Cc1sc2nc(SCC(=O)c3ccc(O)cc3O)[nH]c(=O)c2c1C` [compound 2], in assay [1], the inhibition at 10 µM was found to be 81.7 ± 2.5% and the IC50 came to 6.3 µM. Further, the “Inhibition of recombinant CBS enzymatic activity (H2S production)” value on recombinant CBS was “enhanced H2S production”.
The corresponding values for `Cc1cc(=O)[nH]c(SCC(=O)c2cccc3ccccc23)n1` [compound 3] are 102 ± 2.9%, 2.7 µM and “almost inactive”.
`O=C(O)c1cccc(NS(=O)(=O)c2ccccc2)c1` [compound 5]: in assay [1], the inhibition at 10 µM was determined as 95.5 ± 3.4% and the IC50 is 5.7 µM. Further, the “Inhibition of recombinant CBS enzymatic activity (H2S production)” value on recombinant CBS is recorded as “enhancement of H2S production”.
